Measurements: patent publication US8629116B2, “Method for inducing a TRIF-bias” (priority 2008, dated 2014)
“Also recorded” adds a separate entry of the source.

Legend:
THP-1 cells = assay: Cytokine induction with dominant negative MyD88 or TRIF constructs in THP-1 macrophages; assay type: cell-based, human; conditions: for induction of TRIF-dependent cytokines when TRIF is knocked down: dominant negative TRIF construct
Method: THP-1 cells are seeded in 12-well plates (5×10^5 cells/well) and incubated in 0.5 mL RPMI 1640 (ATCC) with 100 U/mL penicillin/100 ug/mL streptomycin (Sigma) with 20 ng/mL phorbol mystyric acid (PMA) (InvivoGen) for differentiation into macrophages. After differentiation of the THP-1, the media is changed to THP-1 media with 5 ng/mL PMA and the cells are transiently transfected with 0.5 μg/well of the pDeNy-hMyD88/LacZ, pDeNy-TRIF/LacZ, or pUNO-mcs (control)/LacZ plasmids and Fugene 6 transfection reagent for 48 h. Media is exchanged for fresh media and the cells are then stimulated with the indicated concentrations of TLR4 agonists for 14 hours. Harvested supernatants are assayed for cytokine levels by multiplex sandwich ELISA (R&D Systems) with the luminex platform. Control wells are assayed for transfection efficiency using the Invivogen LacZ Quantitation Kit.

[1] = tested on: human PBMC-derived macrophages; assay: Cytokine/chemokine induction in the presence of the endocytosis inhibitor Dynasore; assay type: cell-based; conditions: with Dynasore; for MyD88-dependent MIP-1α induction under inhibition of endocytosis: relative to non-treated cells
MM6 cells = assay: Western blot of MM6 cells (IκBα, IRAK4, p38, IRF3); assay type: cell-based, human; conditions: for IRAK-4 / total IκBα / TRIF-mediated signaling proteins (phospho-p38, total p38, IRF3, phospho-IRF3): 10 ng/ml; for TRIF-mediated signaling proteins (phospho-p38, total p38, IRF3, phospho-IRF3): difference between the two AGPs
Method: (§1) For Western blot and phospho-Western blot protein analysis, cells are lysed with Cell Lysis Buffer (Cell Signaling Technology, Danvers, Mass.) with Protease Inhibitor Cocktail (Sigma, St. Louis Mo.). Western Blot on PVDF membranes (Millipore) is performed using standard methods. Bands are detected with ECL Advance Western Blot kit (GE Healthcare, Piscataway, N.J.). Secondary Anti-Rabbit HRP antibody is obtainable from KPL, (Gaithersburg, Md.). Anti-βactin, anti-IRF-3, anti-phospho-IRF-3 (Ser396) and anti-IRAK1 antibodies are obtained from Cell Signaling Technology (Danvers, Mass.).
The role of MAPK signaling molecules in MyD88 versus TRIF signaling after TLR4 ligation is complicated because p38 is implicated in both pathways, however a role for p38 phosphorylation as an indicator of the TRIF pathway is indicated in the literature. […] To determine whether the phosphorylation state of p38 is different after stimulation with CRX-527 versus CRX-547, western blot analysis is performed on lysates from MM6 cells.
MAPK pathways and downstream transcription factors are differentially regulated by TLR agonists. Degradation of IRAK4 and IκBα are indicative of MyD88 after TLR4 signaling (Hatao et al. 260-64; Neumann et al. 1089-94), while TRIF-mediated TLR4 signaling results in IRF3 activation (Yamamoto et al. 6668-72; Yamamoto et al. 640-43). MM6 cells are stimulated with either CRX-547 or CRX-527 (10 ng/ml) for the indicated time. Cellular lysates are collected and Western Blot analysis of the MyD88 pathway proteins, Phospho-IκBα, total IκBα, IRAK4, and TRIF pathway proteins, phospho-p38, total IRF3 and phospho IRF3 is performed using βactin as the loading control.

[2] = Rabbit toxicology study by IM route; assay type: in vivo; conditions: for hematology: granulocytosis: day 9 (2 days post-2°), resolves by day 21; for gross pathology: white discoloration of muscle along needle track and at site of injection: low dose (5 μg); for overall impression of toxicity: n=3 rabbits/group
Method: Groups of three rabbits (NZW—Western Oregon Rabbit Company, Philomath, Oreg.) are vaccinated with 1 mL diluted AGP, or MPL control, IM on days 0, 7 and 14. Two doses of AGP are evaluated. All animals are monitored for body weight, temperature, clinical condition and draize score. Animals are sacrificed one week post final administration. Blood is collected pretreatment, two days after the 2nd vaccination and upon sacrifice for hematology and clinical chemistry. Histopathology of injection sites and major organs are conducted according to standard practices. All animals are used in accordance with guidelines established by the Public Health Service and the Institutional Animal Care and Use Committee at GlaxoSmithKline Biologicals, Hamilton, Mont.
Toxicity of CRX-527, 524, 547 and compound 1 is evaluated in rabbits receiving AGP only by the intramuscular (IM) route. Groups of three rabbits are vaccinated with 1 mL diluted AGP, or MPL control, IM on days 0, 7 and 14. Two doses of AGP are evaluated: high (25 μg) and low (5 μg). All animals are monitored for body weight, temperature, clinical condition and draize score. Animals are sacrificed one week post final administration. Blood is collected pretreatment, two days after the 2nd vaccination and upon sacrifice for hematology and clinical chemistry. Histopathology of injection sites and major organs are conducted.

[3] = tested on: RAW264.7 (macrophage) cells; assay: TNFα and IP-10 production in RAW264.7 cells; assay type: cell-based, mouse
Text: To better compare and confirm the similarity of potency between the L and D isomers in murine cells, RAW264.7 (macrophage) cells are stimulated over a wider dose range with CRX-527, CRX-547, compounds 1a and 1b and the supernatants assayed for MyD88 (TNFα) and TRIF-dependent (IP-10) production.
Since MyD88-dependent signaling after TLR4 stimulation should be earlier than TRIF dependent signaling, and because both MyD88 and TRIF can induce downstream TNFα production due to activation of the NFκB pathway, an earlier timepoint is tested for cytokine production after stimulation with the L and D isomers.

RAW264.7 cells = assay: Western blot of signaling proteins in RAW264.7 cells; assay type: cell-based, mouse; conditions: 10 ng/ml, PMA pre-activated
Method: as §1
To determine whether the phosphorylation (activation) status of key protein signaling molecules in the TRIF versus MyD88 in RAW264.7 cells, cells are pre-activated with 10^−7M PMA) then stimulated with 10 ng/ml of the AGPs. Cellular lysates are prepared at 0, 15 m, 30 m, 45 m, 60 m, 120 m, 240 m, Similar to results in MM6 cells, IκBα degradation is faster after stimulation with CRX-527 compared to CRX-547 (FIG. 29). […] The increased reponsiveness of these cello could be due to the pre-activation with PMA, known to increase the maturation state of monocytic cells. CRX-547 induces expression of Phospho-IκBα and Phospho-IRF3. IRF3 is induced through TRIF mediated signaling. The amount of total IRF3 protein is also higher in the cells treated with CRX-547.

[4] = dominant negative MyD88 construct

Compound | induction of MyD88-dependent cytokine (TNFα) when MyD88 signaling is inhibited (THP-1 cells; [4]) | induction of TRIF-dependent cytokines when TRIF is knocked down (THP-1 cells) | TRIF-dependent RANTES induction under inhibition of endocytosis [1] | MyD88-dependent MIP-1α induction under inhibition of endocytosis [1] | IRAK-4 (MM6 cells) | total IκBα (MM6 cells) | TRIF-mediated signaling proteins (phospho-p38, total p38, IRF3, phospho-IRF3) (MM6 cells) | gross pathology: white discoloration of muscle along needle track and at site of injection [2] | overall impression of toxicity [2] | potency for IP-10 production ([3]; wider dose range) | potency for TNFα production ([3]; wider dose range) | further results
CCCCCCCCCCCC(CC(=O)NC(COC1OC(CO)C(OP(=O)(O)O)C(OC(=O)CC(CCCCCCCCCCC)OC(=O)CCCCCCCCC)C1NC(=O)CC(CCCCCCCCCCC)OC(=O)CCCCCCCCC)C(=O)O)OC(=O)CCCCCCCCC.CCN(CC)CC (stereo not shown) [CRX-527] | significantly reduced | reduced to a similar extent | inhibits | increases slightly | rapid decrease; also recorded: greater degradation | rapid decrease | little or difference | seen | mildly toxic | more potent | more potent | induction of TRIF-dependent cytokine RANTES when MyD88 signaling is inhibited (THP-1 cells; [4]): only slightly reduced; phosphorylation state of p38 (MM6 cells; compared to CRX-547): slight increase; injection site histopathology (myositis) ([2]; high dose): most consistent and greatest; hematology: granulocytosis ([2]; high dose): trend of granulocytosis; hematology: granulocytosis ([2]; low dose): trend of granulocytosis; potency for IP-10 production ([3]; four hours of stimulation): slightly more potent; potency for TNFα production ([3]; four hours of stimulation): slightly more potent; IκBα degradation (RAW264.7 cells; CRX-527 compared to CRX-547): faster
CCCCCCCCCCCC(CC(=O)NC(COC1OC(CO)C(OP(=O)(O)O)C(OC(=O)CC(CCCCCCCCCCC)OC(=O)CCCCCCCCC)C1NC(=O)CC(CCCCCCCCCCC)OC(=O)CCCCCCCCC)C(=O)O)OC(=O)CCCCCCCCC.CCN(CC)CC (stereo not shown) [CRX-547] | unaffected | reduced to a similar extent | inhibits | increases slightly | delayed and less degradation | delayed and less degradation | little or difference | not | minimally toxic | less potent | less potent | injection site histopathology (myositis) ([2]; low dose): no muscle pathology; IRF3 phosphorylation (RAW264.7 cells; performed once): higher degree; IκBα phosphorylation (RAW264.7 cells; performed once): higher degree; amount of total IRF3 protein (RAW264.7 cells; performed once): higher
